Earlier results as cited in patent US20030054382A1, “Infection of eukaryotic cells with viruses in vitro” (priority 1999, published 2003).

Tested on: HCV
Settings: pretreatment of the cells to be infected

dextran sulfate
attachment of HCV to the cell surface and infection of the cells: inhibits the attachment of HCV to the cell surface and prevents any infection of the cells
